Laboratory results from article PMC10120512, “Benzenesulfonamide derivatives as Vibrio cholerae carbonic anhydrases inhibitors: a computational-aided insight in the structural rigidity-activity relationships” (Journal of Enzyme Inhibition and Medicinal Chemistry, 2023).

Experiments:
VchβCA = VchβCA (Vibrio cholerae, UniProt A0A086SLX8); test: biochemical
VchαCA [1] = molecular target: VchαCA (Vibrio cholerae, UniProt Q9KMP6); test: biochemical; format: biochemical
VchαCA [2] = test: biochemical; format: biochemical; settings: for SI [ KI hCA I/KI VchαCA ]: selectivity index hCA I over VchαCA; for SI [ KI hCA II/KI VchαCA ]: selectivity index hCA II over VchαCA
[3] = test system: clinical isolates of V. cholerae (SI-Vc22, SI-Vc71, SI-Vc912); test: Direct antibacterial activity, agar diffusion method; format: cell-based; settings: for inhibition zone diameter: all the isolates, data not shown; for growth inhibition against at least one of the clinical isolates: 2 μL spot, 37 °C, 24 h; on all read-outs here: test concentration or dose not given here
VchγCA = VchγCA (Vibrio cholerae, UniProt Q9KVT1); test: biochemical
Chain of VchγCA (Q9KVT1 1-184): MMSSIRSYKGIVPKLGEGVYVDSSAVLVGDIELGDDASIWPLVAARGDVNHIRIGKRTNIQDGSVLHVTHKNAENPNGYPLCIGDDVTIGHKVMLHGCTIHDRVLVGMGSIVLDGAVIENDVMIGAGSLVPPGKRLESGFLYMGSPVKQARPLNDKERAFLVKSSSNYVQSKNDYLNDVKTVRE

Chain of VchβCA (A0A086SLX8 entry or part of it): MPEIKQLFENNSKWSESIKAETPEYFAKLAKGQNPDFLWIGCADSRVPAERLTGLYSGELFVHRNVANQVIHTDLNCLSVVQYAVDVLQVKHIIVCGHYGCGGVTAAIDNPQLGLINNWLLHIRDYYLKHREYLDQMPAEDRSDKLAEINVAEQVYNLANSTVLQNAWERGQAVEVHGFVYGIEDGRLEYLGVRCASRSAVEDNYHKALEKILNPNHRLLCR
Chain of VchαCA (Vibrio cholerae, UniProt Q9KMP6) (Q9KMP6 entry or part of it): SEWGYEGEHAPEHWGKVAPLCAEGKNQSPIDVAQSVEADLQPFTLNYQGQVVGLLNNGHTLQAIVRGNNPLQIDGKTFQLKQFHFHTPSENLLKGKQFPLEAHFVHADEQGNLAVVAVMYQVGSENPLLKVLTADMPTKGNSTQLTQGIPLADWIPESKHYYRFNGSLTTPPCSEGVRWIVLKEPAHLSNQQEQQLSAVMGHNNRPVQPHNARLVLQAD

| SMILES | Ki (VchβCA) [µM] | Ki (VchαCA [1]) [µM] | SI [ KI hCA I/KI VchαCA ] (VchαCA [2]) | SI [ KI hCA II/KI VchαCA ] (VchαCA [2]) | inhibition zone diameter [3] | Ki (VchγCA) [µM] | growth inhibition against at least one of the clinical isolates [3] | SI, selectivity with respect to human isoenzymes (VchαCA [2]; VchαCA versus human isoenzymes (abstract)) |
| --- | --- | --- | --- | --- | --- | --- | --- | --- |
| CCCCNCCNc1ccc(S(N)(=O)=O)cc1 [9a] | 115 | 0.0788 | 6.8 | 1.0 | 3–5 mm |  |  |  |
| Cc1ccc(NCCNc2cccc(S(N)(=O)=O)c2)cc1 [12a] | 173 | 0.0441 |  |  |  | 79 |  |  |
| NS(=O)(=O)c1ccc(NCCNc2ccc(I)cc2)cc1 [4a] | 136 | 0.065 | 12.1 | 9.9 |  |  |  |  |
| CC(C)NCCNc1ccc(S(N)(=O)=O)cc1 [10a] | 12.5 | 0.0075 | 119.5 | 45.0 |  | 92.9 |  |  |
| Cc1cccc(NCC(=O)Nc2ccc(S(N)(=O)=O)cc2)n1 [7b] | 73.1 | 0.017 | 0.9 | 0.3 |  | 59.8 |  |  |
| NS(=O)(=O)c1ccc(NC(=O)CNc2ccc(Cl)cc2)cc1 [3b] | 116 | 0.066 | 0.3 | 0.1 |  | 86.9 | moderate growth inhibition |  |
| NS(=O)(=O)c1cccc(N2CCN(c3ccccc3Br)C2=O)c1 [14c] | 132 | 0.01 | 0.8 | 5.4 |  | 81.3 |  |  |
| NS(=O)(=O)c1cccc(NCCNc2ccccc2)c1 [11a] | 15.6 | 0.063 | 0.1 | 0.1 | 3–5 mm |  | moderate growth inhibition |  |
| NS(=O)(=O)c1ccc(N2CCN(c3ccc(Cl)cc3)C2=O)cc1 [3c] | 106 | 0.047 | 4.1 | 1.0 |  | 50.2 |  |  |
| NS(=O)(=O)c1ccc(N2CCN(c3ccccc3Br)C2=O)cc1 [5c] |  | 0.0472 | 0.1 | 0.1 |  | 73.2 |  |  |
| NS(=O)(=O)c1cccc(NC(=O)CNc2ccccc2Br)c1 [14b] | 16 | 0.0723 | 0.3 |  |  | 72.4 |  |  |
| NS(=O)(=O)c1ccc(NC(=O)CNc2ccccc2F)cc1 [6b] | 51.4 | 0.079 | 0.2 | 0.1 |  | 93.1 |  |  |
| NS(=O)(=O)c1ccc(NCCNc2ccccc2F)cc1 [6a] | 101 | 0.0362 | 2.1 | 0.2 |  | 73.7 |  |  |
| NS(=O)(=O)c1cccc(N2CCN(c3ccccc3)C2=O)c1 [11c] | 100 | 0.0503 | 1.2 | 0.6 |  | 6.5 |  |  |
| NS(=O)(=O)c1cccc(NC(=O)CNc2ccc(Cl)cc2)c1 [13b] | 70.4 | 0.0755 | 3.6 | 0.4 |  |  |  |  |
| Cc1ccc(NCC(=O)Nc2cccc(S(N)(=O)=O)c2)cc1 [12b] | 121 | 0.0731 | 1.2 | 0.1 |  | 9.6 |  |  |
| NS(=O)(=O)c1ccc(NCCNc2ccc(Cl)cc2)cc1 [3a] | 53.8 | 0.0274 | 1.4 | 1.7 |  |  |  |  |
| NS(=O)(=O)c1ccc(N2CCN(Cc3ccccc3)C2=O)cc1 [8c] | 127 | 0.0026 | 3.1 | 1.2 |  | 8.1 |  |  |
| NS(=O)(=O)c1cccc(N2CCN(c3ccc(Cl)cc3)C2=O)c1 [13c] | 122 | 0.004 | 7.6 | 21.0 |  | 73.7 |  |  |
| Cc1ccc(N2CCN(c3ccc(S(N)(=O)=O)cc3)C2=O)cc1 [2c] | 83.6 | 0.027 | 0.60 | 0.14 |  | 3.5 |  |  |
| NS(=O)(=O)c1cccc(NC(=O)CNc2ccccc2)c1 [11b] | 132 | 0.0594 | 7.5 | 0.6 |  |  | moderate growth inhibition |  |
| NS(=O)(=O)c1ccc(NCCNc2ccccc2)cc1 [1a] | 18.3 | 0.0781 | 0.3 | 0.1 |  |  |  |  |
| NS(=O)(=O)c1ccc(NC(=O)CNCc2ccccc2)cc1 [8b] | 53.2 | 0.0614 |  |  |  |  |  |  |

| SMILES | Ki (VchβCA) [µM] | Ki (VchαCA [1]) [µM] | SI [ KI hCA I/KI VchαCA ] (VchαCA [2]) | SI [ KI hCA II/KI VchαCA ] (VchαCA [2]) | inhibition zone diameter [3] | Ki (VchγCA) [µM] | growth inhibition against at least one of the clinical isolates [3] | SI, selectivity with respect to human isoenzymes (VchαCA [2]; VchαCA versus human isoenzymes (abstract)) |
| --- | --- | --- | --- | --- | --- | --- | --- | --- |
| Cc1cccc(NCCNc2ccc(S(N)(=O)=O)cc2)n1 [7a] | 19 | 0.037 | 2.4 | 0.9 |  | 69.8 |  |  |
| CCCCN1CCN(c2ccc(S(N)(=O)=O)cc2)C1=O [9c] | 113 | 0.0047 | 128.4 | 90.0 | 3–5 mm | 54.9 | moderate growth inhibition | ≥ 90 |
| NS(=O)(=O)c1ccc(N2CCN(c3ccccc3F)C2=O)cc1 [6c] |  | 0.0097 |  |  | 3–5 mm | 82.8 |  |  |
| NS(=O)(=O)c1ccc(NC(=O)CNc2ccc(I)cc2)cc1 [4b] | 157 | 0.0228 |  |  |  | 72.5 |  |  |
| Cc1ccc(N2CCN(c3cccc(S(N)(=O)=O)c3)C2=O)cc1 [12c] |  | 0.011 |  |  |  | 76 |  |  |
| Cc1ccc(NCC(=O)Nc2ccc(S(N)(=O)=O)cc2)cc1 [2b] | 97 | 0.0431 | 0.2 | 1.9 |  | 82.6 |  |  |
| NS(=O)(=O)c1ccc(N2CCN(c3ccc(I)cc3)C2=O)cc1 [4c] | 116 | 0.013 | 7.1 | 1.0 | 3–5 mm | 72.2 |  |  |
| CC(C)NCC(=O)Nc1ccc(S(N)(=O)=O)cc1 [10b] | 4 | 0.0362 | 2.5 | 0.7 |  | 58.3 |  |  |
| Cc1cccc(N2CCN(c3ccc(S(N)(=O)=O)cc3)C2=O)n1 [7c] | 122 | 0.011 | 5.0 | 0.7 |  | 80.2 |  |  |
| NS(=O)(=O)c1ccc(NCCNCc2ccccc2)cc1 [8a] | 12.4 | 0.023 | 7.4 | 1.4 |  | 52.7 |  |  |
| NS(=O)(=O)c1ccc(N2CCN(c3ccccc3)C2=O)cc1 [1c] | 134 | 0.0071 | 7.7 | 0.6 |  | 5 |  |  |
| NS(=O)(=O)c1ccc(NCCNc2ccccc2Br)cc1 [5a] | 89.2 | 0.0641 | 14.7 | 14.2 |  |  |  |  |
| CCCCNCC(=O)Nc1cccc(S(N)(=O)=O)c1 [15b] | 116 | 0.0664 | 1.3 | 0.6 |  | 73.6 |  |  |
| NS(=O)(=O)c1ccc(NC(=O)CNc2ccccc2)cc1 [1b] | 17.7 | 0.053 | 1.2 | 0.1 |  | 49.4 |  |  |
| CCCCNCCNc1cccc(S(N)(=O)=O)c1 [15a] | 56.5 | 0.0803 | 1.9 | 0.5 |  | 69.3 |  |  |
| Cc1ccc(NCCNc2ccc(S(N)(=O)=O)cc2)cc1 [2a] | 16.8 | 0.0431 | 0.2 | 0.1 |  | 39.9 |  |  |
| CCCCNCC(=O)Nc1ccc(S(N)(=O)=O)cc1 [9b] | 141 | 0.0786 |  |  |  |  | moderate growth inhibition |  |
| NS(=O)(=O)c1cccc(NCCNc2ccc(Cl)cc2)c1 [13a] | 59.2 | 0.0756 | 4.6 | 0.2 |  | 5.6 | moderate growth inhibition |  |
| NS(=O)(=O)c1cccc(NCCNc2ccccc2Br)c1 [14a] | 97 | 0.0635 | 0.1 | 0.1 |  |  |  |  |
| CC(C)N1CCN(c2ccc(S(N)(=O)=O)cc2)C1=O [10c] | 113 | 0.0098 | 0.9 | 0.3 |  | 64.5 |  |  |
| NS(=O)(=O)c1ccc(NC(=O)CNc2ccccc2Br)cc1 [5b] | 47.4 | 0.062 |  |  |  | 87.7 |  |  |
| CCCCN1CCN(c2cccc(S(N)(=O)=O)c2)C1=O [15c] | 122 | 0.047 | 0.8 | 0.2 |  | 8 |  |  |
